From ChEMBL document CHEMBL1140258, “Synthesis and structure-activity relationships of biarylcarboxamide bis-aminopyrrolidine urea derived small-molecule antagonists of the melanin-concentrating hormone receptor-1 (MCH-R1)” (Bioorg Med Chem Lett, 2005)

biological target: Melanin-concentrating hormone receptor 1 (Homo sapiens, UniProt Q99705); test: biochemical; assay type: cell-based, HEK293
Sequence (Q99705 whole entry): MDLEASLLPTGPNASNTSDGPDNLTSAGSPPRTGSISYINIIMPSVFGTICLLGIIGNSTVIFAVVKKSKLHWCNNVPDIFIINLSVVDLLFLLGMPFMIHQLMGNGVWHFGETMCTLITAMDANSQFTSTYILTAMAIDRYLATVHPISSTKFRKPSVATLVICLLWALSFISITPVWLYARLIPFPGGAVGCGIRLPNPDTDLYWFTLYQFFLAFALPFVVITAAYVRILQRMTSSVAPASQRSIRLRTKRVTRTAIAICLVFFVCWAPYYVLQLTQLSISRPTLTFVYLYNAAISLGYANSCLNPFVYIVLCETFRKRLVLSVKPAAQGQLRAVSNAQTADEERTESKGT
Description: Binding affinity towards the human MCH-R1 receptor by displacing [125I]Tyr13]-MCH radioligand in HEK293 cells, Data is average of 3 or more independent measurements

SMILES | Ki
COc1ccccc1-c1ccc(C(=O)N(C)[C@H]2CCN(C(=O)N(C)[C@@H]3CCN(C)C3)C2)s1 | 3400 nM
CN1CC[C@@H](N(C)C(=O)N2CC[C@H](N(C)C(=O)c3ccc(-c4ccc(S(C)(=O)=O)cc4)s3)C2)C1 | 6000 nM
CCOc1ccc(-c2ccc(C(=O)N(C)[C@H]3CCN(C(=O)N(C)[C@@H]4CCN(C)C4)C3)s2)cc1 | 63 nM
Cc1ccccc1-c1ccc(C(=O)N(C)[C@H]2CCN(C(=O)N(C)[C@@H]3CCN(C)C3)C2)s1 | 19 nM
CN1CC[C@@H](N(C)C(=O)N2CC[C@H](N(C)C(=O)c3ccc(-c4ccc(C#N)cc4)s3)C2)C1 | 2400 nM
CN1CC[C@@H](N(C)C(=O)N2CC[C@H](N(C)C(=O)c3ccc(-c4cccc(Cl)c4)s3)C2)C1 | 320 nM
CN1CC[C@@H](N(C)C(=O)N2CC[C@H](N(C)C(=O)c3ccc(-c4cccc(C(F)(F)F)c4)s3)C2)C1 | 1800 nM
CN1CC[C@H](N(C)C(=O)N2CC[C@@H](N(C)C(=O)c3ccc(-c4ccc(C(F)(F)F)cc4)s3)C2)C1 | 190 nM
Cc1cccc(C)c1-c1ccc(C(=O)N(C)[C@H]2CCN(C(=O)N(C)[C@@H]3CCN(C)C3)C2)s1 | 310 nM
CN1CC[C@@H](N(C)C(=O)N2CC[C@H](N(C)C(=O)c3ccc(-c4ccc(O)cc4)s3)C2)C1 | > 10000 nM
COc1ccc(-c2ccc(C(=O)N(C)[C@H]3CCN(C(=O)N(C)[C@@H]4CCN(C)C4)C3)cc2)c(C)c1 | 16 nM
CN1CC[C@@H](N(C)C(=O)N2CC[C@@H](N(C)C(=O)c3ccc(-c4ccc(C(F)(F)F)cc4)s3)C2)C1 | 150 nM
CN1CC[C@@H](N(C)C(=O)N2CC[C@H](N(C)C(=O)c3ccc(-c4ccc(F)cc4)s3)C2)C1 | 37 nM
CC(C)Oc1ccc(-c2ccc(C(=O)N(C)[C@H]3CCN(C(=O)N(C)[C@@H]4CCN(C)C4)C3)s2)cc1 | 3300 nM
COc1cccc(-c2ccc(C(=O)N(C)[C@H]3CCN(C(=O)N(C)[C@@H]4CCN(C)C4)C3)s2)c1 | 900 nM
CN1CC[C@@H](N(C)C(=O)N2CC[C@H](N(C)C(=O)c3ccc(-c4ccccc4C(F)(F)F)s3)C2)C1 | 61 nM

The next compounds have a lower Ki than those just listed; values first:

Ki | SMILES
14 nM | CN1CC[C@H](N(C)C(=O)N2CC[C@H](N(C)C(=O)c3ccc(-c4ccc(C(F)(F)F)cc4)s3)C2)C1
10 nM | CN1CC[C@@H](N(C)C(=O)N2CC[C@H](N(C)C(=O)c3ccc(-c4ccccc4Cl)s3)C2)C1
7 nM | CN1CC[C@@H](N(C)C(=O)N2CC[C@H](N(C)C(=O)c3ccc(-c4ccc(N(C)C)cc4)s3)C2)C1
5 nM | COc1ccc(-c2ccc(C(=O)N(C)[C@H]3CCN(C(=O)N(C)[C@@H]4CCN(C)C4)C3)cc2)cc1
5 nM | CC(C)c1ccc(-c2ccc(C(=O)N(C)[C@H]3CCN(C(=O)N(C)[C@@H]4CCN(C)C4)C3)s2)cc1
4 nM | COc1ccc(-c2ccc(C(=O)N(C)[C@H]3CCN(C(=O)N(C)[C@@H]4CCN(C)C4)C3)s2)cc1
4 nM | CN1CC[C@@H](N(C)C(=O)N2CC[C@H](N(C)C(=O)c3ccc(-c4ccc(OC(F)(F)F)cc4)s3)C2)C1
3 nM | Cc1ccc(-c2ccc(C(=O)N(C)[C@H]3CCN(C(=O)N(C)[C@@H]4CCN(C)C4)C3)s2)cc1
3 nM | Cc1cc(Cl)ccc1-c1ccc(C(=O)N(C)[C@H]2CCN(C(=O)N(C)[C@@H]3CCN(C)C3)C2)s1
3 nM | COc1ccc(-c2ccc(C(=O)N(C)[C@H]3CCN(C(=O)N(C)[C@@H]4CCN(C)C4)C3)s2)c(C)c1
3 nM | CN1CC[C@@H](N(C)C(=O)N2CC[C@H](N(C)C(=O)c3ccc(-c4ccc(Cl)cc4Cl)s3)C2)C1
3 nM | Cc1ccc(-c2ccc(C(=O)N(C)[C@H]3CCN(C(=O)N(C)[C@@H]4CCN(C)C4)C3)s2)c(C)c1
2 nM | CN1CC[C@@H](N(C)C(=O)N2CC[C@H](N(C)C(=O)c3ccc(-c4ccc(C(F)(F)F)cc4)s3)C2)C1
2 nM | CN1CC[C@@H](N(C)C(=O)N2CC[C@H](N(C)C(=O)c3ccc(-c4ccc(Cl)cc4)s3)C2)C1
2 nM | CN1CC[C@@H](N(C)C(=O)N2CC[C@H](N(C)C(=O)c3ccc(-c4ccc(Cl)cc4)cc3)C2)C1
2 nM | CCOc1ccc(-c2ccc(C(=O)N(C)[C@H]3CCN(C(=O)N(C)[C@@H]4CCN(C)C4)C3)s2)c(Cl)c1
1 nM | Cc1ccc(-c2ccc(C(=O)N(C)[C@H]3CCN(C(=O)N(C)[C@@H]4CCN(C)C4)C3)s2)c(Cl)c1
1 nM | CCc1ccc(-c2ccc(C(=O)N(C)[C@H]3CCN(C(=O)N(C)[C@@H]4CCN(C)C4)C3)s2)cc1
